Laboratory results reported in US8080115B2, “Method for the surface treatment of a metallic or fibrous material” (priority 2005, dated 2011).

Assays:
man = conditions: previously described advantages; cited from earlier work
[1] = system: aquatic organisms, such as bacteria, freshwater algae, daphnia and freshwater fish; assay: Toxicity for aquatic organisms
[2] = Degreasing of steel sheets with an impregnated cotton pad; design: key to degreasing grade: Grade=1: visible residual presence of a thin greasy film; Grade=2: visible residual presence of small greasy spots; Grade=3: visible absence of fatty substance (degreased sheet); conditions: for OVERALL GRADE (/10): from the number of the 9 fatty substances with grade 3
Description: Steel sheets covered with a thin, uniform film of different greases, lubricants or straight cutting oils commonly used in the metal-processing industry are degreased.
The performances of these 7 compositions are compared for 9 commercial greases and oils of different chemical mixtures.
For the purpose of the evaluation, a cotton pad is impregnated with the test composition and then this cotton pad is brought into contact with a thin and uniform film of fatty substances deposited on the surface of a steel sheet. This operation is repeated twice. The steel sheet is subsequently rinsed with cold water, so as to remove the solvent. The degreasing effect is subsequently graded as follows:
Grade=1: visible residual presence of a thin greasy film,
Grade=2: visible residual presence of small greasy spots,
Grade=3: visible absence of fatty substance (degreased sheet).
For each of Compositions 1 to 7, an “overall grade” is assigned to the function of the number of fatty substances for which the composition in question has not made it possible to achieve the grade of 3. This overall grade, with a maximum value of 10, is assigned in the following way:
For each Composition 1 to 7, the grade obtained a) for the specific degreasing of each of the fatty substances FS1 to FS9 deposited (grade from 1 to 3) and b) overall, as degreasing composition (grades from 6/10 to 10/10) is thus taken up in the table below.

[3] = Flammability / flashpoint of the compositions; format: physicochemical
[4] = Ready biodegradability, OECD No. 301 A (DOC Die-away Test); conditions: at 28 days
[5] = Risks of harmfulness for the aquatic environment / bioaccumulation; design: key: −=harmful demonstrated; +=slight risk; ++=very slight risks
Description: For each of Compositions A to E, the characteristics of odor (“ODOR”), of stability at alkaline pH, i.e. at a pH of 9 (“STAB.”) and of risks of harmfulness in terms of protection of the aquatic environment/bioaccumulation (“BIO.”) are taken up in the table below according to the following notation: […]

[6] = Aerobic inherent biodegradability, OECD 302 B (Zahn-Wellens EMPA Test); conditions: at 28 days
Description: The biodegradability is here measured according to the process, hereinafter denoted “OECD 302 B”, recommended by the OECD under the following number and following title: No. 302 B—Inherent Biodegradability: Zahn—Wellens EMPA Test.

[7] = compulsory labelings R51/R53; cited from earlier work
[8] = FS 2 = mixture of petroleum mineral oils
[9] = FS 4 = molybdenum disulfide grease
[10] = FS 5 = mixture of mineral oil, of paraffinic hydrocarbons and of graphite
[11] = FS 6 = polydimethylsiloxane oil
[12] = FS 7 = mutifraction oily mixture
[13] = FS 8 = biostable polyvalent microemulsion
[14] = FS 9 = nonchlorinated special lubricant

| Compound | irritant nature and toxicity to man (man) | toxicity for aquatic organisms [1] | degreasing grade ([2]; FS 1 = paraffinic mineral oil) | degreasing grade [2, 8] | degreasing grade ([2]; FS 3 = food-grade mineral oil) | degreasing grade [2, 9] | degreasing grade [2, 10] | degreasing grade [2, 11] | degreasing grade [2, 12] | degreasing grade [2, 13] | degreasing grade [2, 14] | OVERALL GRADE (/10) [2] | flashpoint [3] [°C] | ready biodegradability [4] [%] | BIO. (risks of harmfulness, protection of the aquatic environment/bioaccumulation) [5] | aerobic inherent biodegradability [6] [%] | toxicity for the environment [7] |
| --- | --- | --- | --- | --- | --- | --- | --- | --- | --- | --- | --- | --- | --- | --- | --- | --- | --- |
| CO[C@H]1CO[C@H]2[C@@H]1OC[C@H]2OC [Composition 5, dimethyl isosorbide] | absence of irritant nature and of toxicity to man | absence of toxicity for aquatic organisms | 3 | 3 | 2 | 3 | 2 | 2 | 3 | 2 | 3 | 6 /10 | 120 | ~25 | ++ | ~36 |  |
| ClCCl [Composition 2, dichloromethane] |  |  | 3 | 3 | 3 | 3 | 3 | 3 | 3 | 3 | 3 | 10 /10 |  |  |  |  | a certain toxicity |
| CCOC(=O)C(C)O (stereo not shown) [Composition 4, ethyl lactate] |  |  | 3 | 3 | 3 | 3 | 2 | 3 | 3 | 2 | 3 | 8 /10 | 46 |  |  |  |  |
| C=C(C)[C@H]1CC=C(C)CC1 [Composition 3, dipentene] |  |  | 3 | 3 | 3 | 3 | 3 | 3 | 3 | 2 | 3 | 9 /10 | 48 |  |  |  |  |
| 2,2,4-trimethyl-1,3-pentanediol monoisobutyrate [Composition A] |  |  |  |  |  |  |  |  |  |  |  |  |  |  | − |  |  |
| ClC=C(Cl)Cl [Composition 1, trichloroethylene] |  |  | 3 | 3 | 3 | 3 | 3 | 3 | 3 | 3 | 3 | 10 /10 |  |  |  |  | a certain toxicity |
